This note sets out measurements from patent US7091340B2, “Polymorphs” (Boehringer Ingelheim Pharmaceuticals, Inc., priority 2003, dated 2006).

A short description of series [1]: Microscopical solution phase transformation experiments. The class given is physicochemical. The note with it: room temperature; Forms IV and VI compared.
Series [2] in a line: Solubility vs. temperature profile experiments. The series is classed as physicochemical. As to conditions: within the temperature range of the experiment.

Turning to `Cc1ccc(-n2nc(C(C)(C)C)cc2NC(=O)Nc2ccc(OCCN3CCOCC3)c3ccccc23)cc1` [Form VI, 1-(5-tert-butyl-2-p-tolyl-2H-pyrazol-3-yl)-3-[4-(2-morpholin-4-yl-ethoxy)-naphthalen-1-yl]-urea], the “thermodynamic stability relative to Form IV” value in series [1] is “more thermodynamically stable at room temperature relative to Form IV”; in series [2] (Forms IV and VI compared) it was “more thermodynamically stable relative to Form IV”. The “thermodynamic relationship of the two forms” value in series [2] is reported as “monotropically related”.
